Source: patent US10124004B2, “Pyrido[3,4-d]pyrimidine derivative and pharmaceutically acceptable salt thereof” (Teijin Pharma Limited, priority 2015, dated 2018)

Columns and labels:
CDK4/cyclin D3 = target: T1, CDK4/cyclin D3 (Homo sapiens, UniProt P11802); assay: Human CDK4/cyclin D3 inhibitory activity (QS S Assist CDK4/Cyclin D3_FP Kit, IMAP fluorescence polarization); type: biochemical; conditions: 50% inhibitory concentration against CDK4/cyclin D3, given as class symbol
T1 construct: purchased Carna Biosciences, Inc. QS S Assist CDK4/Cyclin D3_FP Kit
T1 sequence (P11802 whole entry): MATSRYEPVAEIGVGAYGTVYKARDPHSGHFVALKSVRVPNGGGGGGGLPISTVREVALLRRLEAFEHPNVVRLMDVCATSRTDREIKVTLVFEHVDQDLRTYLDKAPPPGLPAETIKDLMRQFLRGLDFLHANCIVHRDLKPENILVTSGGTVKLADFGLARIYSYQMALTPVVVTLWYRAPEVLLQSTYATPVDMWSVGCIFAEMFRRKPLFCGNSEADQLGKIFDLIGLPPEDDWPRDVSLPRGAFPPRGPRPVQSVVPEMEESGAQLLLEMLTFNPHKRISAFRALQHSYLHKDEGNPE
T1 sequence (P30281 whole entry partner): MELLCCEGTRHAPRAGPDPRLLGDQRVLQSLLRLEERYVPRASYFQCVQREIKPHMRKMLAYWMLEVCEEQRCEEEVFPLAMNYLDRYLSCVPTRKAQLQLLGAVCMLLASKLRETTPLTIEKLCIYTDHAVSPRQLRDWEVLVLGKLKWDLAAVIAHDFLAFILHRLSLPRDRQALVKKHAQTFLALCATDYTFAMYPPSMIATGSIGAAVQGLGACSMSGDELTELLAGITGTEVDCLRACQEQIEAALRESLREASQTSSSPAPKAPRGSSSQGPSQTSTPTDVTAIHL
Method in brief: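 IMAP fluorescence polarization kit: CDK4/cyclin D3 at 12.5-25 ng/well with kit ATP/substrate/metal mix in 20 mM HEPES pH 7.4, 0.01% Tween20, 2 mM DTT, 45 min at room temperature. FP read at 485/535 nm after 30 min binding; IC50 from dose-response fit of percent inhibition versus enzyme and no-enzyme controls.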

CDK2/cyclin A2 = target: T2, CDK2/cyclin A2 (Homo sapiens, UniProt P24941); assay: Human CDK2/cyclin A2 inhibitory activity (QS S Assist CDK2/Cyclin A2_FP Kit, IMAP fluorescence polarization); type: biochemical; conditions: 50% inhibitory concentration against CDK2/cyclin A2, given as class symbol
T2 construct: purchased Carna Biosciences, Inc. QS S Assist CDK2/Cyclin A2_FP Kit
Method in brief: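 Kinase activity read as fluorescence polarization (485/535 nm) after phosphorylated fluorescent substrate binds IMAP reagent (30 min, RT, dark). Enzyme (2.5 ng/well) reacted 60 min at RT with ATP/substrate/metal in HEPES pH 7.4 buffer with Tween 20 and DTT; no-enzyme wells define 0% activity; IC50 by curve fit.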

Row | SMILES | IC50 (CDK4/cyclin D3) | IC50 (CDK2/cyclin A2)
1 | C[C@@H](O)c1nc(N[C@H]2CCCOC2)c2nc(Nc3ccc(N4CCNCC4=O)cn3)ncc2c1Cl [Compound 751] | < 10 nM | ≥ 100 nM
2 | COC[C@H](C)Nc1nc([C@@H](C)O)cc2cnc(Nc3ccc(N4CCNCC4=O)cn3)nc12 [Compound 752] | 10 to 100 nM | ≥ 100 nM
3 | CNCCOc1ccc(Nc2ncc3c(Cl)c([C@@H](C)O)nc(N[C@H]4CCCOC4)c3n2)nc1 [Compound 755] | < 10 nM | ≥ 100 nM
4 | COC[C@H](C)Nc1nc([C@@H](C)O)c(Cl)c2cnc(Nc3ccc(N4CCNCC4=O)cn3)nc12 [Compound 756] | 10 to 100 nM | ≥ 100 nM
5 | CNCCOc1ccc(Nc2ncc3c(Cl)c([C@@H](C)O)nc(N[C@@H](C)COC)c3n2)nc1 [Compound 758] | 10 to 100 nM | ≥ 100 nM
6 | COC1CCN(c2ccc(Nc3ncc4cc([C@@H](C)O)nc(N[C@H]5CCCOC5)c4n3)nn2)CC1 [Compound 762] | < 10 nM | ≥ 100 nM
7 | CC(C)Nc1nc(C2CCOC2)cc2cnc(Nc3ccc(N4CCNCC4=O)cn3)nc12 (centres unmarked) [Compound 763] | < 10 nM | ≥ 100 nM
8 | CC(C)Nc1nc([C@@H](C)O)cc2cnc(Nc3ccc(N4CCN[C@H](C(C)C)C4=O)cn3)nc12 [Compound 766] | 10 to 100 nM | ≥ 100 nM
9 | CC(C)Nc1nc([C@@H](C)O)cc2cnc(Nc3ccc(N4CCN(C(=O)OC(C)C)CC4)nn3)nc12 [Compound 767] | < 10 nM | ≥ 100 nM
10 | CC(C)Nc1nc([C@@H](C)O)cc2cnc(Nc3ccc(NC(=O)C4CCNCC4)cn3)nc12 [Compound 768] | < 10 nM | ≥ 100 nM
11 | C[C@@H](O)c1cc2cnc(Nc3ccc(N4CCNCC4=O)cn3)nc2c(NC23CC(C2)C3)n1 [Compound 771] | < 10 nM | ≥ 100 nM
12 | CC(C)Nc1nc([C@@H](C)O)cc2cnc(Nc3ccc(O[C@@H]4CCC[C@H]4N)cn3)nc12 [Compound 772] | < 10 nM | ≥ 100 nM
13 | CC(C)Nc1nc([C@@H](C)O)cc2cnc(Nc3ccc(N4CCC5(CCNCC5)C4=O)cn3)nc12 [Compound 784] | < 10 nM | ≥ 100 nM
14 | CC(C)Nc1nc([C@@H](C)O)cc2cnc(Nc3cnc(N4CCNCC4)cn3)nc12 [Compound 789] | < 10 nM | ≥ 100 nM
15 | CC(C)Nc1nc([C@@H](C)O)cc2cnc(Nc3ccc(N4CCC(C(=O)O)CC4)nn3)nc12 [Compound 792] | 10 to 100 nM | ≥ 100 nM
16 | CC(C)Nc1nc([C@@H](C)O)cc2cnc(Nc3ccc(N4CCC(C(C)(C)C(=O)O)CC4)nn3)nc12 [Compound 794] | < 10 nM | ≥ 100 nM
17 | C[C@@H](O)c1cc2cnc(Nc3ccc(N4CCNCC4=O)cn3)nc2c(NC(C)(C)C)n1 [Compound 795] | < 10 nM | 10 to 100 nM
18 | CC(C)Nc1nc([C@@H](C)O)cc2cnc(Nc3ccc(C4CCN(C(C)(C)C(=O)O)CC4)cn3)nc12 [Compound 796] | < 10 nM | ≥ 100 nM
19 | C[C@@H](O)c1cc2cnc(Nc3ccc(OCC4CNC4)cn3)nc2c(N[C@H]2CCCOC2)n1 [Compound 800] | < 10 nM | ≥ 100 nM
20 | CNC1CCCC1Oc1ccc(Nc2ncc3cc(C(C)O)nc(NC(C)C)c3n2)nc1 (centres unmarked) [Compound 801] | < 10 nM | ≥ 100 nM
21 | C[C@@H](O)c1cc2cnc(Nc3ccc(O[C@@H]4CCNC4)cn3)nc2c(N[C@H]2CCCOC2)n1 [Compound 805] | < 10 nM | ≥ 100 nM
22 | CC(C)Nc1nc([C@@H](C)O)cc2cnc(Nc3ccc(-c4cnn(C5CCNCC5)c4)cn3)nc12 [Compound 808] | < 10 nM | ≥ 100 nM
23 | CCNc1nc([C@@H](C)O)cc2cnc(Nc3ccc(N4CCNCC4=O)cn3)nc12 [Compound 812] | 10 to 100 nM | ≥ 100 nM
24 | CCCCNc1nc([C@@H](C)O)cc2cnc(Nc3ccc(N4CCNCC4=O)cn3)nc12 [Compound 813] | < 10 nM | ≥ 100 nM
25 | CCCNc1nc([C@@H](C)O)cc2cnc(Nc3ccc(N4CCNCC4=O)cn3)nc12 [Compound 814] | < 10 nM | ≥ 100 nM
26 | Cc1nc(Nc2ncc3c(Cl)c([C@@H](C)O)nc(NC(C)C)c3n2)ccc1N1CCNCC1=O [Compound 815] | < 10 nM | ≥ 100 nM
27 | CCNc1nc([C@@H](C)OC)cc2cnc(Nc3ccc(CN4CCNCC4)cn3)nc12 [Compound 816] | < 10 nM | ≥ 100 nM

Results, then the molecule that gave them:

Row | IC50 (CDK4/cyclin D3) | IC50 (CDK2/cyclin A2) | SMILES
28 | < 10 nM | ≥ 100 nM | CC(C)Nc1nc([C@@H](C)O)c(Cl)c2cnc(Nc3ccc(N4CCC(O)CC4)nn3)nc12 [Compound 753]
29 | 10 to 100 nM | ≥ 100 nM | COC[C@H](C)Nc1nc([C@@H](C)O)cc2cnc(Nc3ccc(OCCN(C)C)cn3)nc12 [Compound 754]
30 | < 10 nM | ≥ 100 nM | CNCCOc1ccc(Nc2ncc3cc([C@@H](C)O)nc(N[C@@H](C)COC)c3n2)nc1 [Compound 757]
31 | 10 to 100 nM | ≥ 100 nM | COC[C@H](C)Nc1nc([C@@H](C)O)c(Cl)c2cnc(Nc3ccc(N4CCC(O)CC4)nn3)nc12 [Compound 759]
32 | 10 to 100 nM | ≥ 100 nM | COC[C@H](C)Nc1nc([C@@H](C)O)cc2cnc(Nc3ccc(N4CCC(O)CC4)nn3)nc12 [Compound 760]
33 | < 10 nM | ≥ 100 nM | COC1CCN(c2ccc(Nc3ncc4cc([C@@H](C)O)nc(NC(C)C)c4n3)nn2)CC1 [Compound 761]
34 | < 10 nM | ≥ 100 nM | CC(C)Nc1nc([C@@H](C)O)cc2cnc(Nc3ccc(N4CCNCC4C(F)(F)F)cn3)nc12 (some centres unmarked) [Compound 764]
35 | < 10 nM | ≥ 100 nM | CC(C)Nc1nc([C@@H](C)O)cc2cnc(Nc3ccc(N4CCN[C@@H](C(C)C)C4=O)cn3)nc12 [Compound 765]
36 | < 10 nM | ≥ 100 nM | CC(C)Nc1nc([C@@H](C)O)cc2cnc(Nc3ccc(NC(=O)C4CCCNC4)cn3)nc12 (some centres unmarked) [Compound 769]
37 | 10 to 100 nM | ≥ 100 nM | CC(C)Nc1nc([C@@H](C)O)cc2cnc(Nc3ccc(CN4CCC(C(=O)O)CC4)cn3)nc12 [Compound 770]
38 | < 10 nM | ≥ 100 nM | CC(C)Nc1nc([C@@H](C)O)cc2cnc(Nc3ccc(N4CCNC(C(F)(F)F)C4)cn3)nc12 (some centres unmarked) [Compound 777]
39 | 10 to 100 nM | ≥ 100 nM | Cc1cc(Nc2ncc3cc([C@@H](C)O)nc(NC(C)C)c3n2)ncc1N1CCNCC1=O [Compound 780]
40 | < 10 nM | ≥ 100 nM | CC(CN(C)C)Oc1ccc(Nc2ncc3cc([C@@H](C)O)nc(N[C@H]4CCCOC4)c3n2)nc1 (some centres unmarked) [Compound 781]
41 | < 10 nM | ≥ 100 nM | C[C@@H](O)c1cc2cnc(Nc3ccc(OC[C@@H]4CCCN4)cn3)nc2c(N[C@H]2CCCOC2)n1 [Compound 782]
42 | < 10 nM | ≥ 100 nM | C[C@@H](O)c1cc2cnc(Nc3ccc(OC[C@H]4CCCN4)cn3)nc2c(N[C@H]2CCCOC2)n1 [Compound 783]
43 | < 10 nM | ≥ 100 nM | COC[C@@H](C)Nc1nc([C@@H](C)O)cc2cnc(Nc3ccc(OCCN(C)C)cn3)nc12 [Compound 785]

Row | IC50 (CDK4/cyclin D3) | IC50 (CDK2/cyclin A2) | SMILES
44 | < 10 nM | ≥ 100 nM | C[C@@H](O)c1cc2cnc(Nc3ccc(O[C@H]4CC[C@H](N(C)C)CC4)cn3)nc2c(N[C@H]2CCCOC2)n1 [Compound 786]
45 | < 10 nM | ≥ 100 nM | C[C@@H](O)c1cc2cnc(Nc3ccc(O[C@H]4CC[C@@H](N(C)C)CC4)cn3)nc2c(N[C@H]2CCCOC2)n1 [Compound 787]
46 | < 10 nM | ≥ 100 nM | CC(C)Nc1nc([C@@H](C)O)cc2cnc(Nc3ccc(NC(=O)C4CCCCN4)cn3)nc12 (some centres unmarked) [Compound 788]
47 | < 10 nM | ≥ 100 nM | CC(C)Nc1nc([C@@H](C)O)cc2cnc(Nc3ccc(C4CCN(C(C)(C)C(=O)O)CC4)nn3)nc12 [Compound 790]
48 | < 10 nM | 10 to 100 nM | C[C@@H](O)c1cc2cnc(Nc3ccc(N4CCNCC4)nn3)nc2c(NC(C)(C)C)n1 [Compound 791]
49 | 10 to 100 nM | ≥ 100 nM | CC(C)Nc1nc([C@@H](C)O)cc2cnc(Nc3ccc(N4CCCC(C(=O)O)C4)nn3)nc12 (some centres unmarked) [Compound 793]
50 | 10 to 100 nM | ≥ 100 nM | CC(C)Nc1nc([C@@H](C)O)cc2cnc(Nc3ccc(N4CCC(CC(=O)O)CC4)nn3)nc12 [Compound 797]
51 | < 10 nM | ≥ 100 nM | CC(C)Nc1nc([C@@H](C)O)cc2cnc(Nc3ccc(C4COCCN4)cn3)nc12 (some centres unmarked) [Compound 798]
52 | < 10 nM | ≥ 100 nM | CNC1CCCC1Oc1ccc(Nc2ncc3cc(C(C)O)nc(NC(C)C)c3n2)nc1 (centres unmarked) [Compound 799]
53 | < 10 nM | ≥ 100 nM | C[C@@H](O)c1cc2cnc(Nc3ccc(OCC4CCN4)cn3)nc2c(N[C@H]2CCCOC2)n1 (some centres unmarked) [Compound 802]
54 | < 10 nM | ≥ 100 nM | C[C@@H](O)c1cc2cnc(Nc3ccc(O[C@H]4CCNC4)cn3)nc2c(N[C@H]2CCCOC2)n1 [Compound 803]
55 | < 10 nM | ≥ 100 nM | CC(C)Nc1nc([C@@H](C)O)cc2cnc(Nc3ccc(N4CCOCC4=O)cn3)nc12 [Compound 804]
56 | < 10 nM | ≥ 100 nM | O=C(O)C1CCN(Cc2ccc(Nc3ncc4cc(C(F)F)nc(N[C@H]5CCCOC5)c4n3)nc2)CC1 [Compound 806]
57 | 10 to 100 nM | ≥ 100 nM | CC(C)Nc1nc(C2CCCOC2)cc2cnc(Nc3ccc(N4CCNCC4=O)cn3)nc12 (centres unmarked) [Compound 807]
58 | < 10 nM | 10 to 100 nM | CC(C)Nc1nc([C@@H](C)O)cc2cnc(Nc3ccc(N4CCN(CCO)CCC4=O)cn3)nc12 [Compound 811]
